Assay results from patent US20260101895A1, “[…] AND COMPOSITION” (Innospec Limited, priority 2022, published 2026).

Assays:
[1] = Repeated solubility: copper bioavailability over repeated wettings (colorimetric); settings: for Bioavailable copper Step 1 / Bioavailable copper Step 2 / Bioavailable copper Step 3 / Bioavailable copper Step 4 / Bioavailable copper Step 5: repeated solubility; for Bioavailable copper Step 1: 1 g complex in 50 ml deionised water, centrifuged, filtered, colorimetric 635 nm; for Bioavailable copper Step 2 / Bioavailable copper Step 3 / Bioavailable copper Step 4 / Bioavailable copper Step 5: undissolved material in 50 ml fresh deionised water
Protocol: The colorimetric absorbance at 635 nm using a Hach Lange DR3900 Spectrophotometer of copper nitrate solutions of known concentrations gives a linear relationship where:
Absorbance is relative to a standard solution of 9.9 ml deionised water, 0.1 ml 68 to 70% nitric acid
The copper content is converted to bioavailable copper using the formula: […]
To determine the copper content of each of the copper amino carboxylic acid complexes, 9.9 ml of filtered copper containing solution and 0.1 mL of 68 to 70% nitric acid was added to a spectrometer vial to completely react all of the copper complex to copper nitrate.
The absorbance at 635 nm (pre-zeroed with solution of 9.9 mL deionised water and 0.1 mL nitric acid) was recorded.
1 g of each copper amino carboxylic acid complex was added to 50 ml deionised water in a 50 ml centrifuge tube and stirred. The resulting mixture was centrifuged at 4000 rpm for 30 minutes, a sample of this was withdrawn and filtered through a 0.45 μm syringe. The copper content was determined using the above colorimetric method.
The remaining liquid in the centrifuge tube was poured away leaving only some undissolved material. 50 ml of fresh deionised water was added to the centrifuge tube containing undissolved material. The stirring and centrifugation process was repeated until no undissolved material remained.
These measurements indicate the bioavailability of the copper over repeated wettings in use.

[2] = initial solubility; 2 g complex in 100 ml deionised water, room temperature, 20 minutes, filtered 0.45 μm
Source text: By the term “copper bioavailability” we mean the amount of copper that is released upon contact with water, i.e. so as to provide free copper ions for consumption by fungi. Copper bioavailability values may be measured using any suitable method, including the method as set out in the Examples. The copper bioavailability may be determined by measuring the content of copper in a sample (for example using a colorimetric test that compares to copper nitrate solutions of known concentrations) and converting the copper content to an amount of bioavailable copper (in ppm) using the formula: […]
The copper content is converted to bioavailable copper using the formula:
A solution of each copper amino carboxylic acid complex was prepared by dissolving 2 g of the copper complex in 100 ml deionised water and stirring at room temperature for 20 minutes. A sample of this solution was then withdrawn and filtered through a 0.45 μm syringe.
The filtered copper liquid was diluted with 1% nitric acid to yield a solution containing an approximate maximum of 1 mg/L Cu2+. The total copper content was then determined using a Perkin Elmer NexION 350D and converted to bioavailable copper using the formula above.

Molecule: O=C([O-])CNCC(=O)[O-].[Cu+2] [Copper iminodiacetate]
- Bioavailable copper Step 1 [1]: 27750 ppm
- Bioavailable copper Step 2 [1]: 27750 ppm
- Bioavailable copper Step 3 [1]: 27750 ppm
- Bioavailable copper Step 4 [1]: 27750 ppm
- Bioavailable copper Step 5 [1]: 27125 ppm
- Bioavailability over repeated wettings/steps (in words) ([1]; summary of Table 2): good bioavailability for 3 or more wettings/steps
- Bioavailable Cu by ICP-MS [2]: 33000 ppm

Molecule: Copper 2-aminooctanoate
- Bioavailable Cu by ICP-MS [2]: 150 ppm

Molecule: Copper 12-aminododecanoate
- Bioavailable Cu by ICP-MS [2]: 9200 ppm

Molecule: Copper L-asparaginate
- Bioavailable Cu by ICP-MS [2]: 7125 ppm

Molecule: Copper isoleucinate
- Bioavailable Cu by ICP-MS [2]: 13050 ppm

Molecule: Copper lysinate
- Bioavailable copper Step 1 [1]: 79000 ppm
- Bioavailable copper Step 2 [1]: 24000 ppm
- Bioavailable copper Step 3 [1]: 8375 ppm
- Bioavailable copper Step 4 [1]: 4000 ppm
- Bioavailable copper Step 5 [1]: 0 ppm
- Bioavailable Cu by ICP-MS [2]: 106950 ppm

Molecule: Copper phenylalaninate
- Bioavailable Cu by ICP-MS [2]: 5250 ppm

Molecule: Copper sarcosinate
- Bioavailable Cu by ICP-MS [2]: 278000 ppm
